# Reference: US20130158362A1 (INFACARE PHARMACEUTICAL CORPORATION, priority 2011, published 2013)
# Assays:
# [1] = tested on: term and late preterm subjects with hyperbilirubinemia; assay: Phase 2b trial: adverse events; assay type: in vivo, human
# Source text: Safety measurements included adverse events (AEs), hematology and chemistry laboratory tests, vital sign measurements, physical examinations, dermatological assessments, hearing assessments, ophthalmological assessments, neurological assessments, and quantitative electrocardiograms (ECGs).
# Safety population: Defined as all subjects who were enrolled in the clinical study and received IMP. Subjects were summarized according to the treatment received.
# Analysis of Safety Parameters: Descriptive statistical methods were used to summarize safety parameters based on the safety population. All treatment-emergent adverse events (TEAEs) were summarized. Tabular summaries were also presented for all TEAEs considered potentially related to the IMP, TEAEs by intensity, serious adverse events (SAEs), and AEs leading to discontinuation.
# [2] = animal studies; doses approximately equivalent to the proposed human dose; cited from earlier work
substance,measurement,setting,value
tin IV mesoporphyrin IX dichloride [Stannsoporfin],"# of subjects one AE, n (%)",[1]; 1.5 mg/kg IM,8 (47.1%)
same,"AE Anal Abscess: subjects, n (%)",[1]; 1.5 mg/kg IM,0
same,"AE Anemia: subjects, n (%)",[1]; 1.5 mg/kg IM,0
same,"AE Bradycardia: subjects, n (%)",[1]; 1.5 mg/kg IM,0
same,"AE CO2 decreased: subjects, n (%)",[1]; 1.5 mg/kg IM,0
same,"AE CRP increased: subjects, n (%)",[1]; 1.5 mg/kg IM,1 (5.9%)
same,"AE Contusion: subjects, n (%)",[1]; 1.5 mg/kg IM,1 (5.9%)
same,"AE Depressed level consciousness: subjects, n (%)",[1]; 1.5 mg/kg IM,0
same,"AE Diaper dermatitis: subjects, n (%)",[1]; 1.5 mg/kg IM,2 (11.8%)
same,"AE Erythema toxicum: subjects, n (%)",[1]; 1.5 mg/kg IM,0
same,"AE Erythema: subjects, n (%)",[1]; 1.5 mg/kg IM,0
same,"AE Flushing: subjects, n (%)",[1]; 1.5 mg/kg IM,0
same,"AE Hemangioma: subjects, n (%)",[1]; 1.5 mg/kg IM,1 (5.9%)
same,"AE Hemoglobin increased: subjects, n (%)",[1]; 1.5 mg/kg IM,0
same,"AE Hyperbilirubinemia: subjects, n (%)",[1]; 1.5 mg/kg IM,2 (11.8%)
same,"AE Jaundice: subjects, n (%)",[1]; 1.5 mg/kg IM,5 (29.4%)
same,"AE Leukocytosis: subjects, n (%)",[1]; 1.5 mg/kg IM,0
same,"AE Meningitis: subjects, n (%)",[1]; 1.5 mg/kg IM,0
same,"AE Oral Candidiasis: subjects, n (%)",[1]; 1.5 mg/kg IM,0
same,"AE Rash neonatal: subjects, n (%)",[1]; 1.5 mg/kg IM,0
same,"AE Rash papular: subjects, n (%)",[1]; 1.5 mg/kg IM,0
same,"AE Rash: subjects, n (%)",[1]; 1.5 mg/kg IM,1 (5.9%)
same,"AE Seborrhoeic dermatitis: subjects, n (%)",[1]; 1.5 mg/kg IM,0
same,"AE Serum Glucose decreased: subjects, n (%)",[1]; 1.5 mg/kg IM,0
same,"AE Serum sodium increased: subjects, n (%)",[1]; 1.5 mg/kg IM,0
same,"AE Skin exfoliation: subjects, n (%)",[1]; 1.5 mg/kg IM,1 (5.9%)
same,"AE Thrombocytopenia: subjects, n (%)",[1]; 1.5 mg/kg IM,0
same,"AE Umbilical Hernia: subjects, n (%)",[1]; 1.5 mg/kg IM,0
same,"AE Vomiting: subjects, n (%)",[1]; 1.5 mg/kg IM,0
same,Total AEs,"[1]; 1.5 mg/kg IM, N = 17",17
same,"# of subjects one AE, n (%)",[1]; 3.0 mg/kg IM,10 (55.6%)
same,"AE Anal Abscess: subjects, n (%)",[1]; 3.0 mg/kg IM,1 (5.6%)
same,"AE Anemia: subjects, n (%)",[1]; 3.0 mg/kg IM,1 (5.6%)
same,"AE Bradycardia: subjects, n (%)",[1]; 3.0 mg/kg IM,0
same,"AE CO2 decreased: subjects, n (%)",[1]; 3.0 mg/kg IM,1 (5.6%)
same,"AE CRP increased: subjects, n (%)",[1]; 3.0 mg/kg IM,0
same,"AE Contusion: subjects, n (%)",[1]; 3.0 mg/kg IM,0
same,"AE Depressed level consciousness: subjects, n (%)",[1]; 3.0 mg/kg IM,0
same,"AE Diaper dermatitis: subjects, n (%)",[1]; 3.0 mg/kg IM,1 (5.6%)
same,"AE Erythema toxicum: subjects, n (%)",[1]; 3.0 mg/kg IM,3 (16.7%)
same,"AE Erythema: subjects, n (%)",[1]; 3.0 mg/kg IM,1 (5.6%)
same,"AE Flushing: subjects, n (%)",[1]; 3.0 mg/kg IM,1 (5.6%)
same,"AE Hemangioma: subjects, n (%)",[1]; 3.0 mg/kg IM,0
same,"AE Hemoglobin increased: subjects, n (%)",[1]; 3.0 mg/kg IM,0
same,"AE Hyperbilirubinemia: subjects, n (%)",[1]; 3.0 mg/kg IM,1 (5.6%)
same,"AE Jaundice: subjects, n (%)",[1]; 3.0 mg/kg IM,0
same,"AE Leukocytosis: subjects, n (%)",[1]; 3.0 mg/kg IM,0
same,"AE Meningitis: subjects, n (%)",[1]; 3.0 mg/kg IM,0
same,"AE Oral Candidiasis: subjects, n (%)",[1]; 3.0 mg/kg IM,0
same,"AE Rash neonatal: subjects, n (%)",[1]; 3.0 mg/kg IM,1 (5.6%)
same,"AE Rash papular: subjects, n (%)",[1]; 3.0 mg/kg IM,0
same,"AE Rash: subjects, n (%)",[1]; 3.0 mg/kg IM,0
same,"AE Seborrhoeic dermatitis: subjects, n (%)",[1]; 3.0 mg/kg IM,1 (5.6%)
same,"AE Serum Glucose decreased: subjects, n (%)",[1]; 3.0 mg/kg IM,1 (5.6%)
same,"AE Serum sodium increased: subjects, n (%)",[1]; 3.0 mg/kg IM,1 (5.6%)
same,"AE Skin exfoliation: subjects, n (%)",[1]; 3.0 mg/kg IM,0
same,"AE Thrombocytopenia: subjects, n (%)",[1]; 3.0 mg/kg IM,0
same,"AE Umbilical Hernia: subjects, n (%)",[1]; 3.0 mg/kg IM,1 (5.6%)
same,"AE Vomiting: subjects, n (%)",[1]; 3.0 mg/kg IM,0
same,Total AEs,"[1]; 3.0 mg/kg IM, N = 18",16
same,serious adverse event Anemia: Outcome,"[1]; 3.0 mg/kg, Rh incompatibility, required transfusion",Resolved
same,"# of subjects one AE, n (%)",[1]; 4.5 mg/kg IM,3 (37.5%)
same,"AE Anal Abscess: subjects, n (%)",[1]; 4.5 mg/kg IM,0
same,"AE Anemia: subjects, n (%)",[1]; 4.5 mg/kg IM,1 (12.5%)
same,"AE Bradycardia: subjects, n (%)",[1]; 4.5 mg/kg IM,1 (12.5%)
same,"AE CO2 decreased: subjects, n (%)",[1]; 4.5 mg/kg IM,0
same,"AE CRP increased: subjects, n (%)",[1]; 4.5 mg/kg IM,0
same,"AE Contusion: subjects, n (%)",[1]; 4.5 mg/kg IM,0
same,"AE Depressed level consciousness: subjects, n (%)",[1]; 4.5 mg/kg IM,1 (12.5%)
same,"AE Diaper dermatitis: subjects, n (%)",[1]; 4.5 mg/kg IM,0
same,"AE Erythema toxicum: subjects, n (%)",[1]; 4.5 mg/kg IM,0
same,"AE Erythema: subjects, n (%)",[1]; 4.5 mg/kg IM,1 (12.5%)
same,"AE Flushing: subjects, n (%)",[1]; 4.5 mg/kg IM,0
same,"AE Hemangioma: subjects, n (%)",[1]; 4.5 mg/kg IM,0
same,"AE Hemoglobin increased: subjects, n (%)",[1]; 4.5 mg/kg IM,1 (12.5%)
same,"AE Hyperbilirubinemia: subjects, n (%)",[1]; 4.5 mg/kg IM,0
same,"AE Jaundice: subjects, n (%)",[1]; 4.5 mg/kg IM,0
same,"AE Leukocytosis: subjects, n (%)",[1]; 4.5 mg/kg IM,1 (12.5%)
same,"AE Meningitis: subjects, n (%)",[1]; 4.5 mg/kg IM,1 (12.5%)
same,"AE Oral Candidiasis: subjects, n (%)",[1]; 4.5 mg/kg IM,0
same,"AE Rash neonatal: subjects, n (%)",[1]; 4.5 mg/kg IM,0
same,"AE Rash papular: subjects, n (%)",[1]; 4.5 mg/kg IM,0
same,"AE Rash: subjects, n (%)",[1]; 4.5 mg/kg IM,0
same,"AE Seborrhoeic dermatitis: subjects, n (%)",[1]; 4.5 mg/kg IM,0
same,"AE Serum Glucose decreased: subjects, n (%)",[1]; 4.5 mg/kg IM,0
same,"AE Serum sodium increased: subjects, n (%)",[1]; 4.5 mg/kg IM,0
same,"AE Skin exfoliation: subjects, n (%)",[1]; 4.5 mg/kg IM,0
same,"AE Thrombocytopenia: subjects, n (%)",[1]; 4.5 mg/kg IM,1 (12.5%)
same,"AE Umbilical Hernia: subjects, n (%)",[1]; 4.5 mg/kg IM,0
same,"AE Vomiting: subjects, n (%)",[1]; 4.5 mg/kg IM,0
same,Total AEs,"[1]; 4.5 mg/kg IM, N = 8",8
same,serious adverse event Meningitis: Outcome,"[1]; 4.5 mg/kg, negative cultures",Resolved
same,subjects who experienced at least 1 TEAE,[1]; each treatment group,Greater than 30%
same,"incidence of TEAEs, 3 stannsoporfin treatment groups versus placebo",[1]; final data,no statistically significant differences
same,"effects on ECG, central nervous system, cardiovascular, pulmonary and renal functions",[2],no biologically significant effects
